The source made the active and inactive calls. The calls are words filed in the database; no cut-off is given here.

Assay [1] concerns the target TRAF2 and NCK-interacting protein kinase (Homo sapiens) (UniProt Q9UKE5). The experiment in a line: Inhibition of human TNIK assessed as residual activity at 1 uM using RLGRDKYKTLRQIRQ as substrate by [gamma-33P]-ATP assay relative to control.
In assay [2] the target is TGF-beta receptor type-2 (Homo sapiens, UniProt P37173). Kind of assay: Inhibition of human TGFBR2 assessed as residual activity at 1 uM using MBP as substrate by [gamma-33P]-ATP assay relative to control.
Assay [3] has as its target Serine/threonine-protein kinase Nek2 (Homo sapiens) (UniProt P51955). Kind of assay: Inhibition of human NEK2 assessed as residual activity at 1 uM using MBP as substrate by [gamma-33P]-ATP assay relative to control.
The target in assay [4] is Fibroblast growth factor receptor 3 (Homo sapiens) (UniProt P22607). The experiment in a line: Inhibition of human FGFR3 assessed as residual activity at 1 uM using poly[Glu:Tyr] (4:1) as substrate by [gamma-33P]-ATP assay relative to control.
In assay [5] the target is Bone morphogenetic protein receptor type-2 (Homo sapiens) (UniProt Q13873). The experiment in a line: Inhibition of human BMPR2 assessed as residual activity at 1 uM using MBP as substrate by [gamma-33P]-ATP assay relative to control.
The target of assay [6] is Tyrosine-protein kinase ITK/TSK (Homo sapiens) (UniProt Q08881). Kind of assay: Inhibition of human ITK assessed as residual activity at 1 uM using MBP as substrate by [gamma-33P]-ATP assay relative to control.
The target in assay [7] is T1, Serine/threonine-protein kinase Chk1 (Homo sapiens) (UniProt O14757).
T1 sequence (whole entry): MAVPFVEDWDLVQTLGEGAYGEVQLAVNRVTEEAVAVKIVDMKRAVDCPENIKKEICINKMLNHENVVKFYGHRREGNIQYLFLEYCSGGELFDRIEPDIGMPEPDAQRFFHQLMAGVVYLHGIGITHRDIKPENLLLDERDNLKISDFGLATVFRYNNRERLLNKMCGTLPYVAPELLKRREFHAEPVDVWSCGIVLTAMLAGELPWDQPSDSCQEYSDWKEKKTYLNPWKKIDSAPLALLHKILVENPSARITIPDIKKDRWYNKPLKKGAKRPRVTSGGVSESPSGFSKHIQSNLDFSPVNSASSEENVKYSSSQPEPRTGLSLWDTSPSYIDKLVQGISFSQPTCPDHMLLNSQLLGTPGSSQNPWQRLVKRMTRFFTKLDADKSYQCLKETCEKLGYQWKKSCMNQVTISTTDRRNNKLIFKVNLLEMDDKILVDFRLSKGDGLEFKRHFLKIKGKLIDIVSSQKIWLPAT
The experiment in a line: Inhibition of hydroxyurea-induced CHK1 phosphorylation at S345 residue in human HCT116 cells at 20 uM treated for 8 hrs starting from 24 hrs post hydroxyurea addition by Western blot analysis. The assay is classed as cell-based. A general note: A western blot detects proteins with antibodies after separation by electrophoresis.

Assay [8] deals with Tyrosine-protein kinase Lck (Homo sapiens) (UniProt P06239). Kind of assay: Inhibition of human LCK assessed as residual activity at 1 uM using poly[Glu:Tyr] (4:1) as substrate by [gamma-33P]-ATP assay relative to control.
The target in assay [9] is Calcium/calmodulin-dependent protein kinase type 1D (Homo sapiens) (UniProt Q8IU85). Kind of assay: Inhibition of human CAMK1D assessed as residual activity at 1 uM using KKALRRQETVDAL as substrate by [gamma-33P]-ATP assay relative to control.
Assay [10] addresses Serine/threonine-protein kinase tousled-like 1 (Homo sapiens) (UniProt Q9UKI8). Kind of assay: Inhibition of human TLK1 assessed as residual activity at 1 uM using Histone H3 as substrate by [gamma-33P]-ATP assay relative to control.
Assay [11] concerns the target Serine/threonine-protein kinase Nek6 (Homo sapiens, UniProt Q9HC98). Kind of assay: Inhibition of human NEK6 assessed as residual activity at 1 uM using casein as substrate by [gamma-33P]-ATP assay relative to control.
For assay [12], the target named is Receptor tyrosine-protein kinase erbB-2 (Homo sapiens) (UniProt P04626). Kind of assay: Inhibition of human ERBB2 assessed as residual activity at 1 uM using poly[Glu:Tyr] (4:1) as substrate by [gamma-33P]-ATP assay relative to control.
In assay [13] the target is Leucine-rich repeat serine/threonine-protein kinase 2 (Homo sapiens) (UniProt Q5S007). Kind of assay: Inhibition of human LRRK2 assessed as residual activity at 1 uM using RLGRDKYKTLRQIRQ as substrate by [gamma-33P]-ATP assay relative to control.
In assay [14] the target is Tyrosine-protein kinase HCK (Homo sapiens) (UniProt P08631). Kind of assay: Inhibition of human HCK assessed as residual activity at 1 uM using KVEKIGEGTYGVVYK as substrate by [gamma-33P]-ATP assay relative to control.
The target in assay [15] is Protein kinase C theta type (Homo sapiens) (UniProt Q04759). The experiment in a line: Inhibition of human PKCtheta assessed as residual activity at 1 uM using Histone H1 as substrate by [gamma-33P]-ATP assay relative to control.
The target in assay [16] is Phosphorylase b kinase gamma catalytic chain, liver/testis isoform (Homo sapiens) (UniProt P15735). The experiment in a line: Inhibition of human PHKgamma2 assessed as residual activity at 1 uM using MBP as substrate by [gamma-33P]-ATP assay relative to control.
Assay [17] has as its target Mitogen-activated protein kinase 8 (Homo sapiens) (UniProt P45983). Kind of assay: Inhibition of human JNK1 assessed as residual activity at 1 uM using ATF2 as substrate by [gamma-33P]-ATP assay relative to control.
Assay [18] deals with STE20/SPS1-related proline-alanine-rich protein kinase (Homo sapiens) (UniProt Q9UEW8). The experiment in a line: Inhibition of human STK39 assessed as residual activity at 1 uM using MBP as substrate by [gamma-33P]-ATP assay relative to control.
In assay [19] the target is Serine/threonine-protein kinase DCLK1 (Homo sapiens) (UniProt O15075). Kind of assay: Inhibition of human DCAMKL1 assessed as residual activity at 1 uM using KKLNRTLSFAEPG as substrate by [gamma-33P]-ATP assay relative to control.
Assay [20] addresses CDK6/cyclin D1 (Homo sapiens) (UniProt P24385+Q00534). The experiment in a line: Inhibition of human CDK6/cyclin-D1 assessed as residual activity at 1 uM using RB protein as substrate by [gamma-33P]-ATP assay relative to control. The assay is classed as protein-complex assay.
For assay [21], the target named is Protein kinase C delta type (Homo sapiens) (UniProt Q05655). Kind of assay: Inhibition of human PKCdelta assessed as residual activity at 1 uM using ERMRPRKRQGSVRRRV as substrate by [gamma-33P]-ATP assay relative to control.
Assay [22] concerns the target Activated CDC42 kinase 1 (Homo sapiens) (UniProt Q07912). Kind of assay: Inhibition of human ACK1 assessed as residual activity at 1 uM using EAIYAAPFAKKK as substrate by [gamma-33P]-ATP assay relative to control.
Assay [23] addresses Tyrosine-protein kinase JAK3 (Homo sapiens) (UniProt P52333). The experiment in a line: Inhibition of human JAK3 assessed as residual activity at 1 uM using poly[Glu:Tyr] (4:1) as substrate by [gamma-33P]-ATP assay relative to control.

Sequence of Serine/threonine-protein kinase DCLK1 (Homo sapiens) (O15075 whole entry): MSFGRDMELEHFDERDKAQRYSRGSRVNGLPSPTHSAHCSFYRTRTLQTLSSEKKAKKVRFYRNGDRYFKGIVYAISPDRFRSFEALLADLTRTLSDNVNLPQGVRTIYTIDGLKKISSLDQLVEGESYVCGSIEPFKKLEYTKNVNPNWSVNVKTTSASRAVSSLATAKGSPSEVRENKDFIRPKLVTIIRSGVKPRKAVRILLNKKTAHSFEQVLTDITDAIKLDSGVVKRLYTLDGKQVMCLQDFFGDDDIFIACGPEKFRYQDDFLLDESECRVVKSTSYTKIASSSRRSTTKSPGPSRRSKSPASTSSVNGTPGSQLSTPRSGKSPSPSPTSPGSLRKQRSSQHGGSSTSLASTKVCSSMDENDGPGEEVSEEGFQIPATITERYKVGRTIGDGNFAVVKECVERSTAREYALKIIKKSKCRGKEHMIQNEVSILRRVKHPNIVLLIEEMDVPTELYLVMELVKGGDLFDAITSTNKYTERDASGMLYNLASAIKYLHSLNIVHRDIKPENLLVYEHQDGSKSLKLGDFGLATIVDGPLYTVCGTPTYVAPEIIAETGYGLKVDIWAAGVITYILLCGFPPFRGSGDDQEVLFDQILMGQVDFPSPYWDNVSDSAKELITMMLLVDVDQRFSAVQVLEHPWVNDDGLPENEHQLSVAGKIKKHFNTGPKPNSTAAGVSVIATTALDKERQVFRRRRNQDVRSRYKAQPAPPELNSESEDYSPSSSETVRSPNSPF
Sequence of Serine/threonine-protein kinase Nek2 (Homo sapiens) (P51955 whole entry): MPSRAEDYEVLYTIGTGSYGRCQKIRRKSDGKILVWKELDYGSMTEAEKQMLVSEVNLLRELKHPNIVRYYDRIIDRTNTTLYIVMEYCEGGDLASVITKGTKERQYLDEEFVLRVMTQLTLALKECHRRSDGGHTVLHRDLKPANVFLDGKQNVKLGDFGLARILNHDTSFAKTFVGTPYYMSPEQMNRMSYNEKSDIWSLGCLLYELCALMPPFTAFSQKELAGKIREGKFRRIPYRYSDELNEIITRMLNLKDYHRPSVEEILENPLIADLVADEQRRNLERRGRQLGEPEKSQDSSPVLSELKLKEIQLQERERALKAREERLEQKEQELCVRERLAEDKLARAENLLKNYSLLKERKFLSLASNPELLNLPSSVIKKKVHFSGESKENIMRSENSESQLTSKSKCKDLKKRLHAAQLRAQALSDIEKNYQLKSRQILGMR
Sequence of Phosphorylase b kinase gamma catalytic chain, liver/testis isoform (Homo sapiens) (P15735 whole entry, canonical isoform): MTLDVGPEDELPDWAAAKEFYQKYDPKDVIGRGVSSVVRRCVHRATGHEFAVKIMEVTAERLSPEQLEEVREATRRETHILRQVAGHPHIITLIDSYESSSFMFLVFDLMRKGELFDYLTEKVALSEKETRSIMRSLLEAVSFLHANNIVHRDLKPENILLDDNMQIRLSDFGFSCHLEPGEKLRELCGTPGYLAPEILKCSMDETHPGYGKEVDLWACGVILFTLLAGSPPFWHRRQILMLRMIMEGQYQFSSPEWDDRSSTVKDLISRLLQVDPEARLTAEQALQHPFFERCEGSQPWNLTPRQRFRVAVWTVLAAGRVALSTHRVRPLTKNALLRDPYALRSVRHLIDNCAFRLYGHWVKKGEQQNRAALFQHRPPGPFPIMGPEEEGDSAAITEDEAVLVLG
Sequence of Tyrosine-protein kinase ITK/TSK (Homo sapiens) (Q08881 whole entry): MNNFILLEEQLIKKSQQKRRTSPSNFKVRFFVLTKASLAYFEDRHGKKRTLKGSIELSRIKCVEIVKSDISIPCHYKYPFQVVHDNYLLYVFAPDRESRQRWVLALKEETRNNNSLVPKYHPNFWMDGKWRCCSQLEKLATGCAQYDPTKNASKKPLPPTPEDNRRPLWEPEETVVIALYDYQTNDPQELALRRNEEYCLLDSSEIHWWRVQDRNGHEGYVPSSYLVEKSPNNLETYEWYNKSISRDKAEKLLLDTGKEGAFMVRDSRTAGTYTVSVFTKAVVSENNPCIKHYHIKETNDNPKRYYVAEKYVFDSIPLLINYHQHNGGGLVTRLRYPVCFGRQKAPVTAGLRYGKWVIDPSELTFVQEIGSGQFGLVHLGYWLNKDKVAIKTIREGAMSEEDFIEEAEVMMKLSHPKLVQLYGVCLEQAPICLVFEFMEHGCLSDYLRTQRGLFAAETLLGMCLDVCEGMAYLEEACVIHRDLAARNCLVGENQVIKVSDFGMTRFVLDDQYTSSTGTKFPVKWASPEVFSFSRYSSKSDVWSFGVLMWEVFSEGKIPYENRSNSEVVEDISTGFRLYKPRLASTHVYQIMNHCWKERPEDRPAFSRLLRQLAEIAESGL
Sequence of Protein kinase C delta type (Homo sapiens) (Q05655 whole entry, looked up): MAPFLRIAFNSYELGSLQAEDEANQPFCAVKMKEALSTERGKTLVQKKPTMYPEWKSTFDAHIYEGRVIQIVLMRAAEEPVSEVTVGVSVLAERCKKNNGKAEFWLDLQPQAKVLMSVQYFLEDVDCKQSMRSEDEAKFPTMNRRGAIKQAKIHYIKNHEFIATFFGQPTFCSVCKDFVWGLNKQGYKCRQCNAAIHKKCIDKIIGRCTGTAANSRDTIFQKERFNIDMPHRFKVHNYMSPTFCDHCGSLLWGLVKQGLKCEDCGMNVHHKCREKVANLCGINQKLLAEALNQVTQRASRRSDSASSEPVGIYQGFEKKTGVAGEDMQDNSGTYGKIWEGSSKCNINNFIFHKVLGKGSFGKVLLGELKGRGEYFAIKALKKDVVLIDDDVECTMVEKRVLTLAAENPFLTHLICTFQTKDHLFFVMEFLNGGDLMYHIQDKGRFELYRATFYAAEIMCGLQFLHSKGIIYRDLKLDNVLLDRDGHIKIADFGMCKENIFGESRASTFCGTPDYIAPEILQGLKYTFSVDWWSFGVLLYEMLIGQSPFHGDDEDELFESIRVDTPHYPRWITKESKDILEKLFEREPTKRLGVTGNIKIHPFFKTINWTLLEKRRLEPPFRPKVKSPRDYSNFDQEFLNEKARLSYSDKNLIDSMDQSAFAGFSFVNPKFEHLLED
Sequence of Serine/threonine-protein kinase Nek6 (Q9HC98 whole entry): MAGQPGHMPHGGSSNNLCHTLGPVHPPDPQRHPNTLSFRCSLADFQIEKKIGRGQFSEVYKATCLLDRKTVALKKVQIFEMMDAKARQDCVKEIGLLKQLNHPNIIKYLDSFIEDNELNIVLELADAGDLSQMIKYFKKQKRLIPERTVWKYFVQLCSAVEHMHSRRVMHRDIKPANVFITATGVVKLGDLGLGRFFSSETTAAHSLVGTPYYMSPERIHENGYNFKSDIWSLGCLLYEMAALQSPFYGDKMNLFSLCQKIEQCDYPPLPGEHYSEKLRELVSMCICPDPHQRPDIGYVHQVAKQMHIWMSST
Sequence of Tyrosine-protein kinase Lck (Homo sapiens) (P06239 2-509 limits assumed): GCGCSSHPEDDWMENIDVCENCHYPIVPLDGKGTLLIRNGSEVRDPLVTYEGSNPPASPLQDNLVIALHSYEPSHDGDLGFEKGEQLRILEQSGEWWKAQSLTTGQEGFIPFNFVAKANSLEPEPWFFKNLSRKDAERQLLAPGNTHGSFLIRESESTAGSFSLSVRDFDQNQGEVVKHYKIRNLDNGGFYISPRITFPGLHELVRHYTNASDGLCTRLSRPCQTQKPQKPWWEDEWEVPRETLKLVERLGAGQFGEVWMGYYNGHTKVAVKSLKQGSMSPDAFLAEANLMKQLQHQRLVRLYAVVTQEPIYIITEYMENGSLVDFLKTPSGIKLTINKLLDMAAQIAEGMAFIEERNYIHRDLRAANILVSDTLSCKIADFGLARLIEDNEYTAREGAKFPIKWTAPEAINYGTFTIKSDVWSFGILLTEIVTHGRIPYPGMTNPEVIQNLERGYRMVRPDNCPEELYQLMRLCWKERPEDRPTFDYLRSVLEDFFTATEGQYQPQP
Sequence of Serine/threonine-protein kinase tousled-like 1 (Homo sapiens) (Q9UKI8 whole entry): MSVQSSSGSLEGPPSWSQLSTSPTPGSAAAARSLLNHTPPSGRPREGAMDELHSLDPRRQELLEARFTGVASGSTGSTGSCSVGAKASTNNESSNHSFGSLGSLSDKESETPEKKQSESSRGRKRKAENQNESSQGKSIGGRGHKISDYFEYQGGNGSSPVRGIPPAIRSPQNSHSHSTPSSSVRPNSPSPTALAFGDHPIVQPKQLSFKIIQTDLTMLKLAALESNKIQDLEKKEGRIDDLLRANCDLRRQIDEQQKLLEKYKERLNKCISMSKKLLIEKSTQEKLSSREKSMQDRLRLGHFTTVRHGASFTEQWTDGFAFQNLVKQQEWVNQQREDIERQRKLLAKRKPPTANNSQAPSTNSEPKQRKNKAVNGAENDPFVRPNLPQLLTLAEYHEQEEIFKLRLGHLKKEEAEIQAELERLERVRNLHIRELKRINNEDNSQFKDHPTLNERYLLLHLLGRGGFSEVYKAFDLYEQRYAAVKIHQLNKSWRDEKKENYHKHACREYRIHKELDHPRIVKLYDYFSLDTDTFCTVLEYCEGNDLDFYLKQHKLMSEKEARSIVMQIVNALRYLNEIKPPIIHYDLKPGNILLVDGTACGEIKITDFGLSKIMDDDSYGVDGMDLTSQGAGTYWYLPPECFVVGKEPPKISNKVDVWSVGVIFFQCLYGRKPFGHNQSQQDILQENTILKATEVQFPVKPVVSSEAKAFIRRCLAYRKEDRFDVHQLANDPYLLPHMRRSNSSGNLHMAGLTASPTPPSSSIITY
Sequence of Calcium/calmodulin-dependent protein kinase type 1D (Homo sapiens) (Q8IU85 whole entry, looked up): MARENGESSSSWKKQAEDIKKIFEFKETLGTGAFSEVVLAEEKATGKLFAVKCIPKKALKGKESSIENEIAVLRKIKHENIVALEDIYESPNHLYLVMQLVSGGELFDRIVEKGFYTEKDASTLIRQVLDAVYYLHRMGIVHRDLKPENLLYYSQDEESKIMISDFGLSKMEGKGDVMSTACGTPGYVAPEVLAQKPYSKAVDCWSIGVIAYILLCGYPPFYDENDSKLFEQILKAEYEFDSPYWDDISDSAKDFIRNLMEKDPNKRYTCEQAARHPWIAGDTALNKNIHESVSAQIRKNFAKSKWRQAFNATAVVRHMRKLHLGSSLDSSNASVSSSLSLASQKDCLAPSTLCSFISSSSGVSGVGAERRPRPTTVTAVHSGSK

For `C(=C\c1ccccc1)/C[N+]12CN3CN(CN(C3)C1)C2`, the Activity was 89.3 to 93.7% in [1]; 111 to 119% in [2]; 106% in [3]; 93.8 to 94.8% in [4]; 96.8 to 98.9% in [5]; 91.3 to 92.2% in assay [6]. In addition, the Activity in assay [8] fell in the range of 94.2 to 95.5%; in assay [9], 98.4 to 98.8%. Also, the inhibition entry in assay [7] is “Active”.
Take `ClC/C=C/C[N+]12CN3CN(CN(C3)C1)C2`: the Activity in [10] was in the range of 93.1 to 93.4%; in [11] it was 95.3 to 95.6%; in [12], 96.7 to 96.8%; in [13], 91.5 to 93.5%; in assay [14], 93.1 to 95.5%; in assay [15], 111 to 115%. In addition, the Activity in [16] fell in the range of 92.2 to 94.9%; in [17] it was 96 to 96.5%; in assay [18], 94.4 to 94.9%; in [19] it was 92.8 to 93.2%; in assay [20], 97.5 to 97.7%; in assay [21] it was 115 to 117%. Besides, the Activity in assay [22] was 90.6 to 94.8%; in [23], 94.2 to 96.6%.

Values taken from ChEMBL document CHEMBL4325871 (Eur J Med Chem, 2019).
